Laboratory results: US20160346249A1 (priority 2012, published 2016)
Marks after values point to notes of the source that are not given here.

Target: T1, human recombinant MAO-A (Homo sapiens, UniProt P21397)
T1 construct: purchased BD Biosciences, Woburn, Mass
T1 sequence (P21397 1-527): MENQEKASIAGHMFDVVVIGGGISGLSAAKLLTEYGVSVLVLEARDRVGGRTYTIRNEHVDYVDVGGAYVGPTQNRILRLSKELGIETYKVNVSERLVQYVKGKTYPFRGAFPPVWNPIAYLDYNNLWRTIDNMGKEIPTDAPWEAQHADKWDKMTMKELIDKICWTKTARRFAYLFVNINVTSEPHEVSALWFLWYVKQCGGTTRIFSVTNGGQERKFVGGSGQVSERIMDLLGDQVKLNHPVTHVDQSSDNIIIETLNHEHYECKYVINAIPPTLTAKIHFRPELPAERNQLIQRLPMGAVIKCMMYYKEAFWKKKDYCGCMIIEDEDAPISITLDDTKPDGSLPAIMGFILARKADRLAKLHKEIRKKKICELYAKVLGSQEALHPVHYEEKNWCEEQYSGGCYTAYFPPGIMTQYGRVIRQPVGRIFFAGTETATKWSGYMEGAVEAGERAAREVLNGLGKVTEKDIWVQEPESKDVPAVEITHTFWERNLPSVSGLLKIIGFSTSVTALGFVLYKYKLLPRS
Assay: Metabolism by recombinant MAO-A
Format: in vitro ADME
Procedure: Incubation systems (ca. 0.2 mL) of human recombinant MAO-A (1.0 mg/mL) and MAO-B (1.0 mg/mL) (BD Biosciences, Woburn, Mass.) were prepared in triplicated 0.1 M potassium phosphate buffer (pH 7.4) (BD Biosciences, Woburn, Mass.). […] The negative samples were prepared as described above, with the exception that instead of HLM, HLmito, or recombinant enzymes, water was added to the incubation mixture.

Q: With `O=C1NCC2(c3ccc(Cl)c(Cl)c3)CC12` (centres unmarked) [EB-10101, 5-(3,4-dichloro-phenyl)-3-aza-bicyclo[3.1.0]hexan-2-one] as the molecule, how does the “MAO-A mediation of formation” value (human recombinant MAO-A) read?
A: The value was “MAO-A mediated”.

Q: What about the “EB-10101 formation rate (mean ± SD)” value (recombinant MAO-A 1 mg/mL, EB-1010 1 μM, 30 min, underestimated (substrate limited)) of the same molecule?
A: Its value is 7.0 ± 2.7^b pmol/min/mg protein.
